This is an account of results in the Kinase Knowledgebase extract (Sharma et al. 2016).

Molecules are shown by their SMILES. pKi: −log10 of the molar value.

The first assay deals with CDK2 (human) (UniProt P24941). The experiment in a line: Enzyme Assay.
Conditions: not given
A word on the pKi: it is the negative decadic logarithm of the Ki, by convention in mol/L. Consider `Nc1nc(NC2CN(C(=O)c3ccc([N+](=O)[O-])cc3)C2)sc1C(=O)c1c(F)cccc1F`, for which the pKi is 6.44.

The same assay, now with this note: concentration not given here.
Broadly, the inhibition is the drop in the measured response relative to a control, in per cent. As to `Nc1nc(NC2CCN(C(=O)/C=C/c3cccc(F)c3)CC2)sc1C(=O)c1c(F)cccc1F`, the inhibition turned out to be 70%.
On the same count and under the same terms, next, `Nc1nc(NC2CCN(C(=O)Cc3cccc(Cl)c3)CC2)sc1C(=O)c1c(F)cccc1F`: 62%; `Nc1nc(NC2CCN(S(=O)(=O)c3cccc([N+](=O)[O-])c3)CC2)sc1C(=O)c1c(F)cccc1F`: -23%; `C=CCC/C=C/C(=O)N1CCC(Nc2nc(N)c(C(=O)c3c(F)cccc3F)s2)CC1`: 69%.
The same measure, in the same setting: next, `Nc1nc(NC2CCN(C(=O)N3CCCC3)CC2)sc1C(=O)c1c(F)cccc1F`: -10%.
`Cc1cc(C)c(C(=O)N2CCC(Nc3nc(N)c(C(=O)c4c(F)cccc4F)s3)CC2)cc1C`: the inhibition worked out at 44%.
Still for that read-out and setting: next, `Nc1nc(NC2CCN(C(=O)/C=C/c3ccc(F)c(F)c3)CC2)sc1C(=O)c1c(F)cccc1F`: 61%; `Nc1nc(NC2CCN(C(=O)c3nc4ccccc4nc3O)CC2)sc1C(=O)c1c(F)cccc1F`: 12%; `CC(=O)CC(=O)C(=O)N1CCC(Nc2nc(N)c(C(=O)c3c(F)cccc3F)s2)CC1`: 50%.
Same read-out and setting: next, `C=CCC(C)C(=O)N1CCC(Nc2nc(N)c(C(=O)c3c(F)cccc3F)s2)CC1` (stereo not given): 21%.
On to `Nc1nc(NC2CCN(C(=O)[C@@H]3C[C@H]3c3ccccc3)CC2)sc1C(=O)c1c(F)cccc1F`, for which the inhibition is -9%.
In the case of `CC(O)(CC(=O)N1CCC(Nc2nc(N)c(C(=O)c3c(F)cccc3F)s2)CC1)C(F)(F)F` (stereo not given), the inhibition was determined as 64%.
As for `CC1(C)C2CC[C@@]1(CS(=O)(=O)N1CCC(Nc3nc(N)c(C(=O)c4c(F)cccc4F)s3)CC1)C(=O)C2`, the inhibition is -34%.
For the compound `CC(C)(CO)C(=O)N1CCC(Nc2nc(N)c(C(=O)c3c(F)cccc3F)s2)CC1`, the inhibition turned out to be 41%.
On to `Nc1nc(NC2CCN(C(=O)COc3ccc([N+](=O)[O-])cc3)CC2)sc1C(=O)c1c(F)cccc1F`, for which the inhibition was 60%.
Regarding `CS(=O)(=O)c1ccccc1S(=O)(=O)N1CCC(Nc2nc(N)c(C(=O)c3c(F)cccc3F)s2)CC1`, the inhibition was -5%.
On the same count and under the same terms, next, `CCC(C)(O)CC(=O)N1CCC(Nc2nc(N)c(C(=O)c3c(F)cccc3F)s2)CC1` (stereo not given): 47%; `Nc1nc(NC2CCN(C(=O)c3cc(F)c(F)c(F)c3)CC2)sc1C(=O)c1c(F)cccc1F`: 65%.
Same read-out and setting: next, `Nc1nc(NC2CCN(C(=O)/C=C/C=C/c3ccccc3)CC2)sc1C(=O)c1c(F)cccc1F`: 58%; `COc1ccc2[nH]c(C(=O)N3CCC(Nc4nc(N)c(C(=O)c5c(F)cccc5F)s4)CC3)cc2c1`: 35%; `C=CCCCC(=O)N1CCC(Nc2nc(N)c(C(=O)c3c(F)cccc3F)s2)CC1`: 39%.
Same read-out and setting: next, `Nc1nc(NC2CCN(C(=O)C(O)c3ccccc3)CC2)sc1C(=O)c1c(F)cccc1F` (stereo not given): 75%; `Cc1c(F)cccc1C(=O)N1CCC(Nc2nc(N)c(C(=O)c3c(F)cccc3F)s2)CC1`: 36%.
In the case of `Nc1nc(NC2CCN(C(=O)Cc3sc(O)nc3O)CC2)sc1C(=O)c1c(F)cccc1F`, the inhibition worked out at 58%.
Same read-out and setting: the result for `Nc1nc(NC2CCN(C(=O)[C@@H](O)Cc3ccccc3)CC2)sc1C(=O)c1c(F)cccc1F` reads 61%; that for `CC(C)C(O)C(=O)N1CCC(Nc2nc(N)c(C(=O)c3c(F)cccc3F)s2)CC1` (stereo not given), 27%.
Same read-out and setting: next, `Cc1cccc(/C=C/C(=O)N2CCC(Nc3nc(N)c(C(=O)c4c(F)cccc4F)s3)CC2)c1`: 50%; `Nc1nc(NC2CCN(C(=O)/C=C/c3ccc(F)cc3F)CC2)sc1C(=O)c1c(F)cccc1F`: 28%; `Cc1ccc(CCCC(=O)N2CCC(Nc3nc(N)c(C(=O)c4c(F)cccc4F)s3)CC2)cc1`: 38%.
On the same count and under the same terms, the result for `Cc1ccoc1C(=O)N1CCC(Nc2nc(N)c(C(=O)c3c(F)cccc3F)s2)CC1` reads 31%; that for `C=CC(C)C(=O)N1CCC(Nc2nc(N)c(C(=O)c3c(F)cccc3F)s2)CC1` (stereo not given), 37%; that for `CC[C@H](C(=O)N1CCC(Nc2nc(N)c(C(=O)c3c(F)cccc3F)s2)CC1)c1ccccc1`, 42%.
On to `CCOCCC(=O)N1CCC(Nc2nc(N)c(C(=O)c3c(F)cccc3F)s2)CC1`, for which the inhibition came out at 18%.
The same measure, in the same setting: the result for `CO[C@H](C(=O)N1CCC(Nc2nc(N)c(C(=O)c3c(F)cccc3F)s2)CC1)c1ccccc1` reads 50%.
The same measure, in the same setting: the result for `CC(=O)CCCC(=O)N1CCC(Nc2nc(N)c(C(=O)c3c(F)cccc3F)s2)CC1` reads 68%; that for `Nc1nc(NC2CCN(C(=O)c3ccc4[nH]nnc4c3)CC2)sc1C(=O)c1c(F)cccc1F`, 49%; that for `Cc1c(C(=O)N2CCC(Nc3nc(N)c(C(=O)c4c(F)cccc4F)s3)CC2)oc2ccccc12`, 38%.
Same read-out and setting: the result for `CS(=O)(=O)CS(=O)(=O)N1CCC(Nc2nc(N)c(C(=O)c3c(F)cccc3F)s2)CC1` reads -23%.
For the compound `CCOc1cccc(/C=C/C(=O)N2CCC(Nc3nc(N)c(C(=O)c4c(F)cccc4F)s3)CC2)c1`, the inhibition stood at 50%.
As to `COC(=O)CCC(=O)N1CCC(Nc2nc(N)c(C(=O)c3c(F)cccc3F)s2)CC1`, the inhibition was found to be 12%.
The same measure, in the same setting: the result for `Nc1nc(NC2CCN(C(=O)Cc3ccc(Cl)cc3)CC2)sc1C(=O)c1c(F)cccc1F` reads 58%.
Same read-out and setting: the result for `Nc1nc(NC2CCN(C(=O)c3cccnc3)CC2)sc1C(=O)c1c(F)cccc1F` reads 28%.
Same read-out and setting: the result for `Nc1nc(NC2CCN(C(=O)c3cc4ccccc4o3)CC2)sc1C(=O)c1c(F)cccc1F` reads 64%; that for `Nc1nc(NC2CCN(C(=O)c3ccccc3COC(=O)c3ccccc3)CC2)sc1C(=O)c1c(F)cccc1F`, -9%; that for `CS(=O)(=O)CC(=O)N1CCC(Nc2nc(N)c(C(=O)c3c(F)cccc3F)s2)CC1`, 45%.
On to `Nc1nc(NC2CCN(C(=O)[C@H](O)C3CCCCC3)CC2)sc1C(=O)c1c(F)cccc1F`, for which the inhibition was determined as 25%.
Same read-out and setting: the result for `CC(C(=O)N1CCC(Nc2nc(N)c(C(=O)c3c(F)cccc3F)s2)CC1)c1ccc(Cl)cc1` (stereo not given) reads 48%; that for `Nc1nc(NC2CCN(C(=O)c3cccnc3Sc3ccc(Cl)cc3)CC2)sc1C(=O)c1c(F)cccc1F`, -73%.
With `Nc1nc(NC2CCN(C(=O)C3(c4ccccc4)CCCC3)CC2)sc1C(=O)c1c(F)cccc1F`, the inhibition was -13%.
Same read-out and setting: the result for `Nc1nc(NC2CCN(S(=O)(=O)c3c(F)cccc3F)CC2)sc1C(=O)c1c(F)cccc1F` reads -8%.
For `COC(C(=O)N1CCC(Nc2nc(N)c(C(=O)c3c(F)cccc3F)s2)CC1)c1ccccc1` (stereo not given), the inhibition worked out at 28%.
In the case of `Cc1ccccc1CC(=O)N1CCC(Nc2nc(N)c(C(=O)c3c(F)cccc3F)s2)CC1`, the inhibition came to 56%.
Same read-out and setting: next, `Nc1nc(NC2CCN(C(=O)c3ccc(F)cc3F)CC2)sc1C(=O)c1c(F)cccc1F`: 67%; `Nc1nc(NC2CCN(C(=O)CCCc3cccs3)CC2)sc1C(=O)c1c(F)cccc1F`: 65%; `COC(=O)[C@H]1CC=CC[C@H]1C(=O)N1CCC(Nc2nc(N)c(C(=O)c3c(F)cccc3F)s2)CC1`: 22%.
For the compound `CCCCC(CC)COC(=O)N1CCC(Nc2nc(N)c(C(=O)c3c(F)cccc3F)s2)CC1` (stereo not given), the inhibition was -42%.
With `Cc1cccc(CC(=O)N2CCC(Nc3nc(N)c(C(=O)c4c(F)cccc4F)s3)CC2)c1`, the inhibition is 55%.
On to `CCCC[C@H]1CC[C@H](C(=O)N2CCC(Nc3nc(N)c(C(=O)c4c(F)cccc4F)s3)CC2)CC1`, for which the inhibition stood at 45%.
Still for that read-out and setting: the result for `CC(=O)Oc1cccc(C(=O)N2CCC(Nc3nc(N)c(C(=O)c4c(F)cccc4F)s3)CC2)c1` reads 56%; that for `CC(C)(O)C(=O)N1CCC(Nc2nc(N)c(C(=O)c3c(F)cccc3F)s2)CC1`, 50%; that for `Nc1nc(NC2CCN(C(=O)C(c3ccccc3)c3ccccc3)CC2)sc1C(=O)c1c(F)cccc1F`, -34%.
On to `Cn1ncc(C(=O)N2CCC(Nc3nc(N)c(C(=O)c4c(F)cccc4F)s3)CC2)c1[N+](=O)[O-]`, for which the inhibition was determined as 40%.
Still for that read-out and setting: the result for `CSCCC(=O)N1CCC(Nc2nc(N)c(C(=O)c3c(F)cccc3F)s2)CC1` reads 42%; that for `CC(O)CC(=O)N1CCC(Nc2nc(N)c(C(=O)c3c(F)cccc3F)s2)CC1` (stereo not given), 38%.
For `Nc1nc(NC2CCN(C(=O)/C=C/c3ccc4c(c3)CCC4)CC2)sc1C(=O)c1c(F)cccc1F`, the inhibition stood at 48%.
Turning to `CC(=O)CC(C(=O)N1CCC(Nc2nc(N)c(C(=O)c3c(F)cccc3F)s2)CC1)c1ccccc1` (stereo not given), the inhibition was 17%.
On to `CC(C)(C)c1ccc(CC(=O)N2CCC(Nc3nc(N)c(C(=O)c4c(F)cccc4F)s3)CC2)cc1`, for which the inhibition was 55%.
`Nc1nc(NC2CCN(S(=O)(=O)c3ccc(Oc4ccncc4)cc3)CC2)sc1C(=O)c1c(F)cccc1F`: the inhibition is -28%.
Take `Nc1nc(NC2CCN(C(=O)c3ccc(CO)cc3)CC2)sc1C(=O)c1c(F)cccc1F`: the inhibition is 47%.
On the same count and under the same terms, the result for `Nc1nc(NC2CCN(C(=O)Cc3ccccn3)CC2)sc1C(=O)c1c(F)cccc1F` reads 80%; that for `CC(C)c1ccc(CC(=O)N2CCC(Nc3nc(N)c(C(=O)c4c(F)cccc4F)s3)CC2)cc1`, 85%.
Same read-out and setting: next, `CC1(C)C2CC[C@]1(CS(=O)(=O)N1CCC(Nc3nc(N)c(C(=O)c4c(F)cccc4F)s3)CC1)C(=O)C2`: -1%.
As to `Cn1cccc1C(=O)N1CCC(Nc2nc(N)c(C(=O)c3c(F)cccc3F)s2)CC1`, the inhibition is 38%.
With `Cc1cc(C(=O)N2CCC(Nc3nc(N)c(C(=O)c4c(F)cccc4F)s3)CC2)ccc1Cl`, the inhibition is 51%.
For `COc1c(C)cc(C(=O)N2CCC(Nc3nc(N)c(C(=O)c4c(F)cccc4F)s3)CC2)cc1C`, the inhibition amounted to 39%.
The same measure, in the same setting: the result for `Nc1nc(NC2CCN(C(=O)OCc3ccccc3)CC2)sc1C(=O)c1c(F)cccc1F` reads -32%; that for `CCCCC(C)C(=O)N1CCC(Nc2nc(N)c(C(=O)c3c(F)cccc3F)s2)CC1` (stereo not given), -2%.
Still for that read-out and setting: next, `Nc1nc(NC2CCN(C(=O)C(O)c3cccc(O)c3)CC2)sc1C(=O)c1c(F)cccc1F` (stereo not given): 47%; `Nc1nc(NC2CCN(C(=O)[C@@H](O)c3ccccc3)CC2)sc1C(=O)c1c(F)cccc1F`: 61%.
